Literature values, collected in article PMC9516332 (Frontiers in Oncology, 2022).
Like-named read-outs stand apart in the source and are kept apart here.

Assays:
Details in all cases: cited from earlier work
[1] = biological target: T1, panel of 255 wild-type kinases (Homo sapiens, UniProt Q8TDC3)
T1 sequence (Q8TDC3 1-778): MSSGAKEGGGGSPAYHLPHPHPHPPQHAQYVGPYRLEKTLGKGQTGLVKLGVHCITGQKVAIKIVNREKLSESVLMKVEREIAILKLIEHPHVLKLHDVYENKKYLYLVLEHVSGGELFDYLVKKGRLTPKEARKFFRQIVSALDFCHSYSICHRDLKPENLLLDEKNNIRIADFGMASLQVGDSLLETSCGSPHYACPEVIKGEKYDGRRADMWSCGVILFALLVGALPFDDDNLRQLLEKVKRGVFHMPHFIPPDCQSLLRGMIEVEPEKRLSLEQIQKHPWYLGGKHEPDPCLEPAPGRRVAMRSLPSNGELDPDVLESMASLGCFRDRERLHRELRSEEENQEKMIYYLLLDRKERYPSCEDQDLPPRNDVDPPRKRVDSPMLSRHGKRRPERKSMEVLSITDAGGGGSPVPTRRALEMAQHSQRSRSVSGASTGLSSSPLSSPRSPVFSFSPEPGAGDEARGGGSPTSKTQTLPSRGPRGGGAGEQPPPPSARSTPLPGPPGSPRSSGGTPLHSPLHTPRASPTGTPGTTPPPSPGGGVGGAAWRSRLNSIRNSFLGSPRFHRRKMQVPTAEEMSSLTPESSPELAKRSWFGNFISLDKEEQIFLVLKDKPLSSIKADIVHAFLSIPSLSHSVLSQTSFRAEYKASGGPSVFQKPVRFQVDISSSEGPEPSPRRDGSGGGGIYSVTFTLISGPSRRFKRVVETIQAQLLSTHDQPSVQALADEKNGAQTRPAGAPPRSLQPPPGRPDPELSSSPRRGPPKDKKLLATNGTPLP

[2] = biological target: panel of 255 wild-type kinases (Homo sapiens, UniProt P11362)
[3] = biological target: panel of 255 wild-type kinases (Homo sapiens, UniProt P29317)
[4] = biological target: panel of 255 wild-type kinases (Homo sapiens, UniProt Q13882)
[5] = biological target: panel of 255 wild-type kinases (Homo sapiens, UniProt Q9BYP7)
[6] = biological target: panel of 255 wild-type kinases (Homo sapiens, UniProt P28482)
[7] = biological target: T2, panel of 255 wild-type kinases (Homo sapiens, UniProt P42680)
T2 sequence (P42680 1-631): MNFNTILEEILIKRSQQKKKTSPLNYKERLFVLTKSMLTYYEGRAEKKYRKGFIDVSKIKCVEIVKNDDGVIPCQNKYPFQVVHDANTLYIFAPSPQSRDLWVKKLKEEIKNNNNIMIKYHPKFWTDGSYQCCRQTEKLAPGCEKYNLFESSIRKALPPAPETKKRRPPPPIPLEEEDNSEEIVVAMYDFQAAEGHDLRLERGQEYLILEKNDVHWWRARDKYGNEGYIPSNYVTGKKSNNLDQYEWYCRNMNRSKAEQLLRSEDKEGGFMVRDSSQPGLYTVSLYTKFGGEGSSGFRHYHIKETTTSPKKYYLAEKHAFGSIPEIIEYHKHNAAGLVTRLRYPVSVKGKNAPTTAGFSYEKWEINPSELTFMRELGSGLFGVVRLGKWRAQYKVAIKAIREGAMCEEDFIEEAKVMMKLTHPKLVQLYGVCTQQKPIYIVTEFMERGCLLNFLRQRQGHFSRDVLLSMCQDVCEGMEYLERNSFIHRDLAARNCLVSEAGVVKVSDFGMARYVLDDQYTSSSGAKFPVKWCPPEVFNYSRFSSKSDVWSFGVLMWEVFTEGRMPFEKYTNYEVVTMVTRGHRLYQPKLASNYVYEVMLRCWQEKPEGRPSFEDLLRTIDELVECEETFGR

[8] = biological target: T3, panel of 255 wild-type kinases (Homo sapiens, UniProt Q14164)
T3 sequence (Q14164 1-716): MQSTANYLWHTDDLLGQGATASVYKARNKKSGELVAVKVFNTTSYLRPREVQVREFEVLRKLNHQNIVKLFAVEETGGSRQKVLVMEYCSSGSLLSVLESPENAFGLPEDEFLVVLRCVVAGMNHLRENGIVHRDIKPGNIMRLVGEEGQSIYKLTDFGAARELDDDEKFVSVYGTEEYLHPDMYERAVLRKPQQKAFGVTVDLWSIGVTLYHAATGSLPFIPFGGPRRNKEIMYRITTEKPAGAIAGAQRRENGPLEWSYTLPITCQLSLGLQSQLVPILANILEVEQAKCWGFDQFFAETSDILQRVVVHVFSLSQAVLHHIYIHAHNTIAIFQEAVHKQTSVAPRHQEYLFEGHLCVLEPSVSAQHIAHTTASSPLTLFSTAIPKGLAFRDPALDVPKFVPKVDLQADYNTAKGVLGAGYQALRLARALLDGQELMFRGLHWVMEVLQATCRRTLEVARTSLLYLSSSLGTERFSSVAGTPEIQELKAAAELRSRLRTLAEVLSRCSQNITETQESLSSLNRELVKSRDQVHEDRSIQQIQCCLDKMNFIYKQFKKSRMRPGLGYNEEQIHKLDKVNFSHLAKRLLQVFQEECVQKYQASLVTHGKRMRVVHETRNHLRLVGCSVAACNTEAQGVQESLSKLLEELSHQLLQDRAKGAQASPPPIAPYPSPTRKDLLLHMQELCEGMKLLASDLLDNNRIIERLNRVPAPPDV

[9] = BRSK1 kinase assay, 1 µmol/L single concentration, ref DOI: 10.1158/1535-7163.MCT-18-0877
[10] = kinase FGFR1, 1 µmol/L single concentration, ref DOI: 10.1158/1535-7163.MCT-18-0877
[11] = kinase EPHA2, 1 µmol/L single concentration, ref DOI: 10.1158/1535-7163.MCT-18-0877
[12] = BRK kinase assay, 1 µmol/L single concentration, ref DOI: 10.1158/1535-7163.MCT-18-0877
[13] = kinase WNK3, 1 µmol/L single concentration, ref DOI: 10.1158/1535-7163.MCT-18-0877
[14] = kinase Erk2, 1 µmol/L single concentration, ref DOI: 10.1158/1535-7163.MCT-18-0877
[15] = kinase TEC, 1 µmol/L single concentration, ref DOI: 10.1158/1535-7163.MCT-18-0877
[16] = kinase IKKε, 1 µmol/L single concentration, ref DOI: 10.1158/1535-7163.MCT-18-0877

SMILES | %-inhibition BRSK1 [1, 9] | %-inhibition at 1 µmol/L, FGFR1 [2, 10] | %-inhibition at 1 µmol/L, EPHA2 [3, 11] | %-inhibition BRK [4, 12] | %-inhibition at 1 µmol/L, WNK3 [5, 13] | %-inhibition at 1 µmol/L, Erk2 [6, 14] | %-inhibition at 1 µmol/L, TEC [7, 15] | %-inhibition at 1 µmol/L, IKKε [8, 16] | %-inhibition BRSK1 [1] | %-inhibition at 1 µmol/L, FGFR1 [2] | %-inhibition at 1 µmol/L, EPHA2 [3] | %-inhibition BRK [4] | %-inhibition at 1 µmol/L, WNK3 [5] | %-inhibition at 1 µmol/L, Erk2 [6] | %-inhibition at 1 µmol/L, TEC [7] | %-inhibition at 1 µmol/L, IKKε [8]
O=C(c1ccc(F)c(F)c1Nc1ccc(I)cc1F)N1CC(O)([C@@H]2CCCCN2)C1 [cobimetinib] | -13% | -1.33% | 2.79% | -1% | 1.84% | -6.38% | -1% | -3.35% | – | – | – | – | – | – | – | –
C=CC(=O)Nc1cc(Nc2nccc(-c3cn(C)c4ccccc34)n2)c(OC)cc1N(C)CCN(C)C [osimertinib] | -12% | 3.51% | 3.35% | 101% | 1.5% | -10% | 86% | 8% | – | – | – | – | – | – | – | –
Cc1cc(Nc2ncc(Cl)c(Nc3ccccc3S(=O)(=O)C(C)C)n2)c(OC(C)C)cc1C1CCNCC1 [ceritinib] | 32% | 11% | 5.69% | 98% | 0.598% | 57% | -8% | 6.42% | – | – | – | – | – | – | – | –
CO[C@@H]1[C@H](N(C)C(=O)c2ccccc2)C[C@H]2O[C@]1(C)n1c3ccccc3c3c4c(c5c6ccccc6n2c5c31)C(=O)NC4 [midostaurin] | – | 93% | 3.36% | 11% | 5.27% | 2.14% | 58% | 97% | 95% | – | – | – | – | – | – | –
COc1cc(N2CCC(N3CCN(C)CC3)CC2)ccc1Nc1ncc(Cl)c(Nc2ccccc2P(C)(C)=O)n1 [brigatinib] | – | – | – | – | – | – | – | – | 84% | 95% | -2.16% | 103% | 1% | 10% | 40% | 24%
C=CC(=O)N1CCC[C@@H](n2nc(-c3ccc(Oc4ccccc4)cc3)c3c(N)ncnc32)C1 [ibrutinib] | -7% | 71% | 7% | – | 7% | -7% | 92% | -0.696% | – | – | – | 103% | – | – | – | –
